Patent US20130012432A1, “Peptides for Treatment of Obesity” (Novo Nordisk A/S, priority 2010, published 2013)
Values after ≈ are worked out from the molar mass of the structure shown. Positions of bridges follow the written chain, without caps; N, C: chain ends. Non-standard residues stand in square brackets, D forms with d. Residues, ends and D or L forms follow the SMILES beside them. Groups on a side chain read outwards from the residue. *: point of attachment. Palmitoyl(16-(5-tetrazolyl)) = O=C(CCCCCCCCCCCCCCCc1nnn[nH]1)*; Lys(CH2CO2H)2 = N[C@@H](CCCCN(CC(=O)O)CC(=O)O)C(=O)O; C18 diacid = O=C(O)CCCCCCCCCCCCCCCCC(=O)*; C17 diacid = O=C(O)CCCCCCCCCCCCCCCC(=O)*; C16 diacid = O=C(O)CCCCCCCCCCCCCCC(=O)*; Orn = NCCC[C@H](N)C(=O)O; Dab = NCC[C@H](N)C(=O)O; AEEA = NCCOCCOCC(=O)O

What was measured:
[1] = physchem
Procedure: From a stock solution in vehicle, either H2O or 10 mM phosphate, containing 1 mg (as weighed) compound per ml, 8-11 aliquots are withdrawn and pH-adjusted individually with HCl/NaOH, to cover the whole pH range.

[2] = molecular target: MC1 receptor (Homo sapiens, UniProt Q01726); experiment: biochemical
Procedure: Assay (IV)—Melanocortin Receptor 1 (MC1) Binding Assay
The MC1 receptor binding assay was performed on BHK cell membranes stably expressing the MC1 receptor. The assay was performed in a total volume of 250 μl: 25 μl of ^125NDP-α-MSH (22 pM in final concentration), 25 μl of test compound/control and 200 μl of cell membrane (25 μg/ml). Test compounds were dissolved in DMSO. Radioactively labeled ligand, membranes and test compounds were diluted in buffer: 25 mM HEPES, pH 7.4, 0.1 mM CaCl2, 1 mM MgSO4, 1 mM EDTA, 0.1% HSA and 0.005% Tween™ 20. Alternatively, HSA may be substituted with ovalbumin. The samples were incubated at 30° C. for 90 min. in Costar round-bottom microtiter plates. Incubation was terminated by filtration on a Packard harvester filtermate. Rapid filtration through Packard Unifilter-96 GF/B filters pre-treated with polyetylenimine (PerkinElmer 6005277). The filters were washed with ice-cold 0.9% NaCl 8-10 times. The plates were air-dried at app. 55° C. for 30 min, and 50 μl Microscint 0 (Packard, cat. No. 6013616) was added to each well. The plates were counted in a Topcounter (1 min/well).
The data were analysed by non-linear regression analysis of binding curves, using the Windows™ program GraphPad™ Prism (GraphPad Software, USA).

Chain of MC1 receptor (Q01726 whole entry): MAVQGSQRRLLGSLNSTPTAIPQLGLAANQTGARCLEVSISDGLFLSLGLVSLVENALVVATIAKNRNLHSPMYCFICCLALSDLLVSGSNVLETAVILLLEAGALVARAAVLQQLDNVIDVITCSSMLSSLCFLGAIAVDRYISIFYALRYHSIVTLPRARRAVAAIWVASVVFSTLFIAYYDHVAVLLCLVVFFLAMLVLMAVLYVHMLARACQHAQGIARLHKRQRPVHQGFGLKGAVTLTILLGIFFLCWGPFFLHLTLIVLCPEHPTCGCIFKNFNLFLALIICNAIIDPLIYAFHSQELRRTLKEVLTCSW

Row | Compound | solubility ([1]; pH 6.1, Solubility Conc.) | solubility ([1]; pH 6.8, Solubility Conc.) | solubility ([1]; pH 7.1, Solubility Conc.) | solubility ([1]; pH 7.3, Solubility Conc.) | solubility ([1]; pH 7.7, Solubility Conc.) | solubility ([1]; pH 7.9, Solubility Conc.) | Ki [2] | solubility ([1]; pH 7.4, Solubility Conc.) | solubility ([1]; pH 6.3, Solubility Conc.) | solubility ([1]; pH 7.2, Solubility Conc.) | also measured
1 | CC(=O)N[C@H]1CCC(=O)NCCC[C@@H](C(=O)N2CCC[C@H]2C(=O)N2CCC[C@H]2C(=O)N[C@@H](CC(=O)O)C(=O)N[C@@H](CCCCN(CC(=O)O)CC(=O)O)C(=O)N[C@@H](CCCCNC(=O)COCCOCCNC(=O)CCCCCCCCCCCCCCC(=O)O)C(N)=O)NC(=O)[C@H](Cc2c[nH]c3ccccc23)NC(=O)[C@H](CCCNC(=N)N)NC(=O)[C@@H](Cc2ccccc2)NC(=O)[C@H](Cc2c[nH]cn2)NC1=O [Example 13, Ac-c[Glu-His-D-Phe-Arg-Trp-Orn]-Pro-Pro-Asp-Lys(biscarboxymethyl)-Lys({2-[2-(15-carboxypentadecanoylamino)ethoxy]ethoxy}acetyl)-NH2] (Ac-EH[dF]RW[Orn]PPD[Lys(CH2CO2H)2]K([AEEA-C16 diacid])-NH2; lactam 1-6) | 473 µM (≈ 949 µg/mL) | 459 µM (≈ 921 µg/mL) | 506 µM (≈ 1020 µg/mL) | 467 µM (≈ 937 µg/mL) | 472 µM (≈ 947 µg/mL) | 493 µM (≈ 989 µg/mL) | > 10 µM |  |  |  | solubility ([1]; pH 5.5, Solubility Conc.): 348 µM (≈ 698 µg/mL); solubility ([1]; pH 5.7, Solubility Conc.): 494 µM (≈ 991 µg/mL); solubility ([1]; pH 6.5, Solubility Conc.): 469 µM (≈ 941 µg/mL)
2 | CC(=O)N[C@H]1CCNC(=O)C[C@@H](C(=O)N2CCC[C@H]2C(=O)N2CCC[C@H]2C(=O)N[C@@H](CCCNC(=N)N)C(=O)N[C@@H](CCC(=O)O)C(=O)N[C@@H](CCCCN(CC(=O)O)CC(=O)O)C(=O)N[C@@H](CCCCNC(=O)COCCOCCNC(=O)CCCCCCCCCCCCCCCc2nnn[nH]2)C(N)=O)NC(=O)[C@H](Cc2c[nH]c3ccccc23)NC(=O)[C@H](CCCNC(=N)N)NC(=O)[C@@H](Cc2ccccc2)NC(=O)[C@H](Cc2c[nH]cn2)NC1=O [Example 15, Ac-c[Dab-His-D-Phe-Arg-Trp-Asp]-Pro-Pro-Arg-Glu-Lys(biscarboxymethyl)-Lys[(2-{2-[16-(tetrazol-5-yl)hexadecanoylamino]ethoxy}ethoxy)acetyl]-NH2] (Ac-[Dab]H[dF]RWDPPRE[Lys(CH2CO2H)2]K([AEEA-Palmitoyl(16-(5-tetrazolyl))])-NH2; lactam 1-6) | 26 µM (≈ 56.9 µg/mL) | 60 µM (≈ 131 µg/mL) | 147 µM (≈ 321 µg/mL) | 395 µM (≈ 864 µg/mL) | 461 µM (≈ 1010 µg/mL) |  | > 10 µM | 445 µM (≈ 973 µg/mL) |  |  | solubility ([1]; pH 5, Solubility Conc.): 49 µM (≈ 107 µg/mL); solubility ([1]; pH 7.8, Solubility Conc.): 441 µM (≈ 964 µg/mL); solubility ([1]; pH 8, Solubility Conc.): 417 µM (≈ 912 µg/mL)
3 | CC(=O)N[C@H]1CCCNC(=O)CC[C@@H](C(=O)N2CCC[C@H]2C(=O)N[C@@H](CO)C(=O)N[C@@H](CCCCN)C(=O)N[C@@H](CCC(=O)O)C(=O)N[C@@H](CCC(=O)O)C(=O)N[C@@H](CO)C(=O)N[C@@H](CO)C(=O)N[C@@H](CCC(=O)O)C(=O)N[C@@H](CCCCNC(=O)COCCOCCNC(=O)CCCCCCCCCCCCCCCC(=O)O)C(N)=O)NC(=O)[C@H](Cc2c[nH]c3ccccc23)NC(=O)[C@H](CCCNC(=N)N)NC(=O)[C@@H](Cc2ccccc2)NC(=O)[C@H](Cc2c[nH]cn2)NC1=O [Example 20] (Ac-[Orn]H[dF]RWEPSKEESSEK([AEEA-C17 diacid])-NH2; lactam 1-6) |  |  |  | 433 µM (≈ 1010 µg/mL) |  | 398 µM (≈ 932 µg/mL) | > 10 µM |  | 399 µM (≈ 934 µg/mL) |  | solubility ([1]; pH 6, Solubility Conc.): 192 µM (≈ 449 µg/mL); solubility ([1]; pH 6.4, Solubility Conc.): 410 µM (≈ 960 µg/mL); solubility ([1]; pH 6.7, Solubility Conc.): 416 µM (≈ 974 µg/mL); solubility ([1]; pH 7, Solubility Conc.): 420 µM (≈ 983 µg/mL); solubility ([1]; pH 7.6, Solubility Conc.): 429 µM (≈ 1000 µg/mL); solubility ([1]; pH 8.2, Solubility Conc.): 439 µM (≈ 1030 µg/mL)
4 | CC(=O)N[C@H]1CCCCNC(=O)CC[C@@H](C(=O)N2CCC[C@H]2C(=O)N2CCC[C@H]2C(=O)N[C@@H](CCCNC(=N)N)C(=O)N[C@@H](CC(=O)O)C(=O)N[C@@H](CCCCN(CC(=O)O)CC(=O)O)C(=O)N[C@@H](CCCCNC(=O)COCCOCCNC(=O)CCCCCCCCCCCCCCCc2nnn[nH]2)C(N)=O)NC(=O)[C@H](Cc2c[nH]c3ccccc23)NC(=O)[C@H](CCCNC(=N)N)NC(=O)[C@@H](Cc2ccccc2)NC(=O)[C@H](Cc2c[nH]cn2)NC1=O [Example 21, Ac-c[Lys-His-D-Phe-Arg-Trp-Glu]-Pro-Pro-Arg-Asp-Lys(biscarboxymethyl)-Lys[(2-{2-[16-(tetrazol-5-yl)hexadecanoylamino]ethoxy}ethoxy)acetyl]-NH2] (Ac-KH[dF]RWEPPRD[Lys(CH2CO2H)2]K([AEEA-Palmitoyl(16-(5-tetrazolyl))])-NH2; lactam 1-6) |  |  |  |  | 360 µM (≈ 797 µg/mL) | 366 µM (≈ 811 µg/mL) | > 10 µM | 175 µM (≈ 388 µg/mL) | 36 µM (≈ 79.7 µg/mL) | 90 µM (≈ 199 µg/mL) | solubility ([1]; pH 5.3, Solubility Conc.): 38 µM (≈ 84.2 µg/mL); solubility ([1]; pH 6, Solubility Conc.): 31 µM (≈ 68.7 µg/mL); solubility ([1]; pH 6.6, Solubility Conc.): 47 µM (≈ 104 µg/mL); solubility ([1]; pH 7.5, Solubility Conc.): 276 µM (≈ 611 µg/mL)
5 | CC(=O)N[C@H]1CCCNC(=O)CC[C@@H](C(=O)N2CCC[C@H]2C(=O)N2CCC[C@H]2C(=O)N[C@@H](Cc2c[nH]cn2)C(=O)N[C@@H](CCC(=O)O)C(=O)N[C@@H](CCCCN(CC(=O)O)CC(=O)O)C(=O)N[C@@H](CCCCNC(=O)COCCOCCNC(=O)CCCCCCCCCCCCCCCC(=O)O)C(N)=O)NC(=O)[C@H](Cc2c[nH]c3ccccc23)NC(=O)[C@H](CCCNC(=N)N)NC(=O)[C@@H](Cc2ccccc2)NC(=O)[C@H](Cc2c[nH]cn2)NC1=O [Example 22, Ac-c[Orn-His-D-Phe-Arg-Trp-Glu]-Pro-Pro-His-Glu-Lys(biscarboxymethyl)-Lys({2-[2-(16-carboxyhexadecanoylamino)ethoxy]ethoxy}acetyl)-NH2] (Ac-[Orn]H[dF]RWEPPHE[Lys(CH2CO2H)2]K([AEEA-C17 diacid])-NH2; lactam 1-6) | 134 µM (≈ 291 µg/mL) | 444 µM (≈ 964 µg/mL) |  |  |  |  | > 10 µM | 438 µM (≈ 951 µg/mL) | 173 µM (≈ 376 µg/mL) | 447 µM (≈ 971 µg/mL) | solubility ([1]; pH 6.7, Solubility Conc.): 284 µM (≈ 617 µg/mL); solubility ([1]; pH 6.9, Solubility Conc.): 443 µM (≈ 962 µg/mL); solubility ([1]; pH 8, Solubility Conc.): 468 µM (≈ 1020 µg/mL)
6 | CC(=O)N[C@H]1CCC(=O)NCCC[C@@H](C(=O)N2CCC[C@H]2C(=O)N2CCC[C@H]2C(=O)N[C@@H](CC(=O)O)C(=O)N[C@@H](CCCCN(CC(=O)O)CC(=O)O)C(=O)N[C@@H](CCCCNC(=O)COCCOCCNC(=O)CCCCCCCCCCCCCCCCC(=O)O)C(N)=O)NC(=O)[C@H](Cc2c[nH]c3ccccc23)NC(=O)[C@H](CCCNC(=N)N)NC(=O)[C@@H](Cc2ccccc2)NC(=O)[C@H](Cc2c[nH]cn2)NC1=O [Example 26, Ac-c[Glu-His-D-Phe-Arg-Trp-Orn]-Pro-Pro-Asp-Lys(biscarboxymethyl)-Lys({2-[2-(17-carboxyheptadecanoylamino)ethoxy]ethoxy}acetyl)-NH2] (Ac-EH[dF]RW[Orn]PPD[Lys(CH2CO2H)2]K([AEEA-C18 diacid])-NH2; lactam 1-6) | 474 µM (≈ 964 µg/mL) | 461 µM (≈ 938 µg/mL) | 476 µM (≈ 968 µg/mL) |  | 474 µM (≈ 964 µg/mL) | 478 µM (≈ 972 µg/mL) | > 10 µM | 482 µM (≈ 981 µg/mL) |  |  | solubility ([1]; pH 5.5, Solubility Conc.): 49 µM (≈ 99.7 µg/mL); solubility ([1]; pH 5.8, Solubility Conc.): 325 µM (≈ 661 µg/mL); solubility ([1]; pH 6.5, Solubility Conc.): 478 µM (≈ 972 µg/mL)
7 | CC(=O)N[C@H]1CCC(=O)NCCCC[C@@H](C(=O)N2CCC[C@H]2C(=O)N2CCC[C@H]2C(=O)N[C@@H](CCCNC(=N)N)C(=O)N[C@@H](CC(=O)O)C(=O)N[C@@H](CCCCN(CC(=O)O)CC(=O)O)C(=O)N[C@@H](CCCCNC(=O)COCCOCCNC(=O)CCCCCCCCCCCCCCCc2nnn[nH]2)C(N)=O)NC(=O)[C@H](Cc2c[nH]c3ccccc23)NC(=O)[C@H](CCCNC(=N)N)NC(=O)[C@@H](Cc2ccccc2)NC(=O)[C@H](Cc2c[nH]cn2)NC1=O [Example 27, Ac-c[Glu-His-D-Phe-Arg-Trp-Lys]-Pro-Pro-Arg-Asp-Lys(biscarboxymethyl)-Lys[(2-{2-[16-(tetrazol-5-yl)hexadecanoylamino]ethoxy}ethoxy)acetyl]-NH2] (Ac-EH[dF]RWKPPRD[Lys(CH2CO2H)2]K([AEEA-Palmitoyl(16-(5-tetrazolyl))])-NH2; lactam 1-6) |  |  |  | 394 µM (≈ 873 µg/mL) |  |  | > 10 µM | 459 µM (≈ 1020 µg/mL) |  | 263 µM (≈ 582 µg/mL) | solubility ([1]; pH 6.6, Solubility Conc.): 42 µM (≈ 93 µg/mL); solubility ([1]; pH 6.9, Solubility Conc.): 65 µM (≈ 144 µg/mL); solubility ([1]; pH 7.5, Solubility Conc.): 474 µM (≈ 1050 µg/mL); solubility ([1]; pH 7.6, Solubility Conc.): 521 µM (≈ 1150 µg/mL); solubility ([1]; pH 7.8, Solubility Conc.): 481 µM (≈ 1070 µg/mL); solubility ([1]; pH 8.1, Solubility Conc.): 435 µM (≈ 963 µg/mL)
